Test results as given in patent US20240246968A1, “SMALL MOLECULE INHIBITORS OF KRAS G12C MUTANT” (Merck Sharp & Dohme LLC, priority 2021, published 2024).

Experiments:
MIA PaCa-2 cells = assay: Growth inhibition activity on KRAS-G12C mutant cell line (MIA PaCa-2), CellTiter-Glo 3D; format: cell-based, human; conditions: MIA PaCa-2, 3-day culture with compound
Experimental: MIA PaCa-2 cells (given by Sumitomo Dainippon Pharma Co., Ltd.), which are a KRAS-G12C mutant human pancreas cancer cell line, were suspended in a 10% fetal bovine serum-containing RPMI1640 medium (manufactured by Fujifilm Wako Pure Chemical Corporation.). The cell suspension was seeded into each well of a 384-well U bottom microplate and cultured in an incubator containing 5% CO2 gas at 37° C. for 1 day. The compounds obtained in the “Preparation of Compounds” section were used as test compounds and were dissolved in DMSO, respectively, and each test compound was diluted with DMSO to give a concentration 500 times the final concentration. The resultant solution of the test compound in DMSO was diluted with the medium used for suspending cells and added to each well of the cell-culture plate to give a DMSO final concentration of 0.2%, followed by culture in an incubator containing 5% CO2 gas at 37° C. for another 3 days. The cell count after 3-day culture in the presence of the test compound was measured using CellTiter-Glo 3D Reagent (manufactured by Promega Corporation). All wells were added with CellTiter-Glo 3D Reagent and mixed for 10 minutes. 30 minutes after mixing, luminescence was measured by a plate reader. The growth inhibition rate was calculated from the following equation, and the concentration of the test compound at which 50/o inhibition was achieved (IC50 (nM)) was determined. The following tables show the results.
[formula] • T: the emission intensity in a well into which a test compound was added. • C: the emission intensity in a well into which a test compound was not added.

[1] = molecular target: T1, interaction between recombinant K-Ras4B G12C mutant protein and cRAF RAS-binding domain (cRAF-RBD) (Homo sapiens, UniProt P01116, G12C); assay: Inhibitory activity on interaction between KRAS G12C and cRAF (Alpha technology); format: biochemical; conditions: GMPPNP-bound KRAS G12C incubated with compound at 25° C. for 1 hour, then cRAF-RBD; Alpha signal
T1 construct: made in house; host or cells: E. coli
Experimental: Interaction between recombinant K-Ras4B G12C mutant protein (amino acids 1-169, SEQ ID NO:2) and cRAF RAS-binding domain (cRAF-RBD, amino acids 50-132, Jena Biosciences GmbH) was measured using Alpha technology (PerkinElmer Inc.).
Recombinant KRAS G12C protein with an N-terminal His-tag was expressed in E. coli and purified by affinity chromatography. To prepare GTP-bound form and GDP-bound form of KRAS G12C protein. 50 μM KRAS G12C protein was incubated with 1 mM GMPPNP (Guanosine-5′-[(β,γ)-imido]triphosphate. Tetralithium salt)(Jena Bioscience GmbH) and 1 mM GDP, respectively, in a loading buffer (20 mM Tris-HCl (pH 7.5), 50 mM NaCl, 1 mM DTT and 2.5 mM EDTA) for 1 hour on ice. After the incubation, MgCl2 was added to a final concentration of 10 mM, followed by incubation at room temperature for 30 minutes. The mixture was allowed to pass through a NAP-5 column to remove free nucleotides and purified, and the resultant nucleotide-bound KRAS G12C protein was used for compound evaluation.
For the measurement of the inhibitory activity of compounds on interaction between KRAS G12C and cRAF-RBD, GMPPNP-bound KRAS G12C protein was incubated with various concentrations of compound in a reaction buffer (20 mM Tris-HCl (pH 7.5), 100 mM NaCl, 1 mM MgCl2, 1 mM TCEP. 0.1% Tween 20) at 25° C. for 1 hour. After the incubation, recombinant cRAF-RBD and Alpha detection reagents were added and incubated at room temperature for 1.5 hours for binding. Interaction of KRAS G12C and cRAF-RBD was monitored by measuring Alpha signal. Inhibition % was calculated using the signal from the reaction without test compound (DMSO control) as 0% inhibition and the signal from the reaction using GDP-bound KRAS G12C in place of GMPPNP-bound KRAS G12C as 100% inhibition. IC50 values were calculated from dose titration curve using curve fitting by XLfit software (IDBS). The following tables show the results.

[2] = molecular target: Gppcp-bound recombinant K-Ras4B G12C mutant protein (amino acids 1-169, C51S/C80L/C118S) (Homo sapiens, UniProt P01116, C118S/C51S/C80L/G12C); assay: KRASG12C binding assay (LC-MS, compound binding rate); conditions: test compound final concentration 0.5 μM, 25° C., 1 hour
Experimental: As test compounds for the KRASG12C binding assay, the compounds obtained in the “Preparation of Compounds” section were used. Sample solutions each containing a test compound were prepared in the form of a 10 mM DMSO solution.
Gppcp-bound recombinant K-Ras4B G12C mutant protein (amino acids 1-169, C51S/C80L/C118S, SEQ ID NO:1) was diluted with a buffer (1×TBS, 0.1 mM TCEP, 0.25 mM MgCl2, 50 μM Gppcp) to prepare a 50 nM protein solution. K-Ras4B is the major splicing variant of K-Ras. Amino acid sequence of residues 1 to 150 including the compounds' binding region of K-Ras4B is exactly same as that of K-Ras4A, the other splicing variant (Oncotarget. 2016 Jul. 19; 7(29): 46717-46733). A sample solution containing 10 mM test compound was diluted ten-fold with DMSO to make a 1 mM sample solution, and then diluted twenty-fold with DMSO to make a 50 μM sample solution. 1 μL of a 50 μM sample solution was added to 100 μL of a 50 nM protein solution to adjust the final concentration of a test compound to be 0.5 μM in the mixture. The mixtures were stored in an incubator at 25° C. for 1 hour, and 10 μL of a 1×TBS solution containing 2% formic acid was added to stop the reaction, followed by LC-MS measurement. LC-MS measurement was performed using Xevo G2-S Q-Tof manufactured by Waters, and reverse-phase chromatography was performed with a desalting column. A mass spectrum of positive ions was obtained by electrospray. For a mass spectrum, a spectrum of polyvalent ions was collectively converted to a molecular weight by using OpenLynx software by the MaxEnt technique, and a compound binding rate was calculated from the ratio of the signal intensity of a peak that corresponds to the molecular weight of the protein to the signal intensity of a peak that corresponds to the molecular weight of the protein conjugated with the compound.
The binding assay of the test compounds was conducted at a final concentration of 0.5 μM. A binding rate of 80% or more is rated “A”, a binding rate of 60% or more and less than 80% is rated “B”, a binding rate of 40% or more and less than 60% is rated “C”, a binding rate of 20% or more and less than 40% is rated “D”, and a binding rate of less than 20% is rated “E”. N.D.=not determined. Binding rate % is the ratio of KRAS signal intensity at the molecular weight of one molecule adduct to the sum of all the KRAS signal intensity (unbound form and adducts) in mass spectrum. Thus, binding rate 100% means that only the one molecule adduct was observed without any unbound KRAS. The following tables show the results.

IC50 (MIA PaCa-2 cells; Homo sapiens, MIA PaCa-2, 72 h)	IC50 [1]	IC50 (MIA PaCa-2 cells)	SMILES	binding rate [2]
120 nM	91 nM		Cc1nc2cc(-c3cccn4c(C(=O)c5cc(F)c(NC(=O)/C=C/CNC67CCC(F)(CC6)C7)c(F)c5)ccc34)c(C(F)(F)F)cc2n1C [Example 84, (E)-N-(4-(8-(1,2-dimethyl-6-(trifluoromethyl)-1H-benzo[d]imidazol-5-yl)indolizine-3-carbonyl)-2,6-difluorophenyl)-4-((4-fluorobicyclo[2.2.1]heptan-1-yl)amino)but-2-enamide]	A (A binding rate of 80% or more is rated “A”)
	1210 nM	784 nM	COc1c(-c2cccn3c(C(=O)c4cc(F)c(NC(=O)/C=C/CNC5(C)CC5)c(F)c4)c(C)nc23)c(C(F)(F)F)cc2c1nc(C)n2C (single isomer, unassigned) [Example 109-2, (E)-N-(2,6-difluoro-4(8-(4-methoxy-1,2-dimethyl-6-(trifluoromethyl)-1H-benzo[d]imidazol-5-yl)-2-methylimidazo[1,2-a]pyridine-3-carbonyl)phenyl)-4-((1-methylcyclopropyl)amino)but-2-enamide]	D (a binding rate of 20% or more and less than 40% is rated “D”)
	19.2 nM	21.6 nM	COc1c(-c2cccn3c(C(=O)c4cc(F)c(NC(=O)/C=C/CNC5(C)CC5)c(F)c4)c(C)nc23)c(C(F)(F)F)cc2c1nc(C)n2C (single isomer, unassigned) [Example 109-1, (E)-N-(2,6-difluoro-4(8-(4-methoxy-1,2-dimethyl-6-(trifluoromethyl)-1H-benzo[d]imidazol-5-yl)-2-methylimidazo[1,2-a]pyridine-3-carbonyl)phenyl)-4-((1-methylcyclopropyl)amino)but-2-enamide]	A (A binding rate of 80% or more is rated “A”)
	16 nM	16 nM	COc1c(-c2cccn3c(C(=O)c4cc(F)c(NC(=O)/C=C/CN[C@H]5CC[C@H](OC)CC5)c(F)c4)cnc23)c(C(F)(F)F)cc2c1nc(C)n2C (single isomer, unassigned) [Example 83-1, (E)-N-(2,6-difluoro-4-(8-(4-methoxy-1,2-dimethyl-6-(trifluoromethyl)-1H-benzo[d]imidazol-5-yl)imidazo[1,2-a]pyridine-3-carbonyl)phenyl)-4-(((1r,4r)-4-methoxycyclohexyl)amino)but-2-enamide]	A (A binding rate of 80% or more is rated “A”)
71 nM	42 nM		Cc1nc2cc(-c3cccn4c(C(=O)c5cc(F)c(NC(=O)/C=C/CNC6CCOC6)c(F)c5)ccc34)c(C(F)(F)F)cc2n1C (stereo not drawn) [Example 77, (E)-N-(4-(8-(1,2-dimethyl-6-(trifluoromethyl)-1H-benzo[d]imidazol-5-yl)indolizine-3-carbonyl)-2,6-difluorophenyl)-4-((tetrahydrofuran-3-yl)amino)but-2-enamide]	A (A binding rate of 80% or more is rated “A”)
	362 nM	532 nM	COc1c(-c2cc(F)cn3c(C(=O)c4cc(F)c(NC(=O)/C=C/CNC5(C)CC5)c(F)c4)cnc23)c(C(F)(F)F)cc2c1nc(C)n2C (single isomer, unassigned) [Example 112-2, (E)-N-(2,6-difluoro-4-(6-fluoro-8-(4-methoxy-1,2-dimethyl-6-(trifluoromethyl)-1H-benzo[d]imidazol-5-yl)imidazo[1,2-a]pyridine-3-carbonyl)phenyl)-4-((1-methylcyclopropyl)amino)but-2-enamide]	A (A binding rate of 80% or more is rated “A”)
	340 nM	340 nM	COc1c(-c2cccn3c(C(=O)c4cc(F)c(NC(=O)/C=C/CNC(C)(C)C)c(F)c4)ccc23)c(C)cc2c1nc(C)n2C (single isomer, unassigned) [Example 40-1]	A (A binding rate of 80% or more is rated “A”)
	29.8 nM	23.1 nM	COc1c(-c2cccn3c(C(=O)c4cc(F)c(NC(=O)/C=C/CNC5(C)CC5)c(F)c4)cnc23)c(C(F)(F)F)cc2c1nc(C)n2C (single isomer, unassigned) [Example 105-1, (E)-N-(2,6-difluoro-4-(8-(4-methoxy-1,2-dimethyl-6-(trifluoromethyl)-1H-benzo[d]imidazol-5-yl)imidazo[1,2-a]pyridine-3-carbonyl)phenyl)-4-((1-methylcyclopropyl)amino)but-2-enamide]	A (A binding rate of 80% or more is rated “A”)
	29 nM	79 nM	CO[C@H]1CC[C@H](NC/C=C/C(=O)Nc2c(F)cc(C(=O)c3ccc4c(-c5c(C)cc6c(ncn6C)c5Cl)cccn34)cc2F)CC1 (single isomer, unassigned) [Example 12-1, (E)-N-(4-(8-(4-chloro-1,6-dimethyl-1H-benzo[d]imidazol-5-yl)indolizine-3-carbonyl)-2,6-difluorophenyl)-4-(((1r,4r)-4-methoxycyclohexyl)amino)but-2-enamide]	A (A binding rate of 80% or more is rated “A”)
	94 nM	130 nM	CO[C@H]1CC[C@H](NC/C=C/C(=O)Nc2c(F)cc(C(=O)c3ccc4c(-c5c(C)cc6c(ncn6C)c5C)cccn34)cc2F)CC1 (single isomer, unassigned) [Example 34-1, (E)-N-(2,6-difluoro-4-(8-(1,4,6-trimethyl-1H-benzo[d]imidazol-5-yl)indolizine-3-carbonyl)phenyl)-4-(((1r,4r)-4-methoxycyclohexyl)amino)but-2-enamide]	A (A binding rate of 80% or more is rated “A”)
